Laboratory results from patent US11560370B1, “5-membered heteroaryl carboxamide compounds for treatment of HBV” (Assembly Biosciences, Inc., priority 2018, dated 2023).

Each molecule was assayed on HBV (assay: Viral production from HepAD38 cells, viral load by qPCR of HBV core sequence). Details: 5 days, supernatant HBV DNA by qPCR, read-out: Viral Load EC50 Activity range.
Assay type: cell-based
Procedure, shortened: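 HepAD38 cells in tetracycline-free medium with 2% FBS, 50,000 cells/well, treated 5 days at 37° C. with compound from 10 μM top concentration (1% DMSO final). Supernatant HBV DNA measured by TaqMan qPCR of core sequence against standards, versus DMSO wells; viability by CellTiter-Glo; EC50/CC50 by four-parameter fit.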
COc1ccccc1C1CCC(c2nn(C)c(N)c2C(=O)Nc2ccc(F)c(Cl)c2)C1 (single isomer, unassigned) [AIA-275D, 5-Amino-N-(3-chloro-4-fluorophenyl)-3-(3-(2-methoxyphenyl)cyclopentyl)-1-methyl-1H-pyrazole-4-carboxamide] was tested, and the EC50 was < 100 nM. Cn1nc(C2CC3CC(S(C)(=O)=O)CC3C2)c(C(=O)Nc2ccc(F)c(Cl)c2)c1N (centres unmarked) [AIA-030] was tested, and the EC50 was < 100 nM. For CNC1CC2CC(c3nn(C)c(N)c3C(=O)Nc3ccc(F)c(Cl)c3)CC2C1 (centres unmarked) [AIA-102], the EC50 was 100 to 500 nM. In the case of COc1cc(-c2nccn2C)ccc1C1CCC(c2nn(C)c(N)c2C(=O)Nc2ccc(F)c(Cl)c2)C1 (single isomer, unassigned) [AIA-367-2, 5-Amino-N-(3-chloro-4-fluorophenyl)-3-(3-(2-methoxy-4-(1-methyl-1H-imidazol-2-yl)phenyl)cyclopentyl)-1-methyl-1H-pyrazole-4-carboxamide], the EC50 is reported as < 100 nM. In the case of CSC1CC2CC(c3nn(C)c(N)c3C(=O)Nc3ccc(F)c(Cl)c3)CC2C1 (centres unmarked) [AIA-028], the EC50 is reported as < 100 nM. CCOC(=O)C=C1CC2CC(c3nn(C)c(N)c3C(=O)Nc3ccc(F)c(Cl)c3)CC2C1 (centres unmarked) [AIA-017] was tested, and the EC50 was < 100 nM. Cn1nc(C2CCC(c3ccccc3)C2)c(C(=O)Nc2ccc(F)c(Cl)c2)c1N (single isomer, unassigned) [AIA-202C, 5-Amino-N-(3-chloro-4-fluorophenyl)-1-methyl-3-(3-phenylcyclopentyl)-1H-pyrazole-4-carboxamide] gave an EC50 of 500 to 10000 nM. For Cn1nc(C2CC3CNC(=O)CC3C2)c(C(=O)Nc2ccc(F)c(Cl)c2)c1N (single isomer, unassigned) [AIA-033-B, 5-Amino-N-(3-chloro-4-fluorophenyl)-1-methyl-3-(3-oxooctahydro-1H-cyclopenta[c]pyridin-6-yl)-1H-pyrazole-4-carboxamide], the EC50 was < 100 nM. For Cn1nc(C2CC3CC(N4CCNC4=O)CC3C2)c(C(=O)Nc2ccc(F)c(Cl)c2)c1N (centres unmarked) [AIA-047], the EC50 was < 100 nM. In the case of Cn1nc([C@@H]2CC3C/C(=N/O)C[C@@H]3C2)c(C(=O)Nc2ccc(F)c(Cl)c2)c1N (some centres unmarked) [AIA-032-A], the EC50 is reported as < 100 nM. For Cn1nc(C2CC3CC(O)(COC(F)F)CC3C2)c(C(=O)Nc2ccc(F)c(Cl)c2)c1N (centres unmarked) [AIA-253-1], the EC50 was < 100 nM. In the case of Cn1nc(C2CC3CC(NS(=O)(=O)C(F)(F)F)CC3C2)c(C(=O)Nc2ccc(F)c(Cl)c2)c1N (centres unmarked) [AIA-086], the EC50 is reported as < 100 nM. Cn1cc(C(=O)Nc2ccc(F)c(Cl)c2)c(C2CC3CC(O)(CS(C)(=O)=O)CC3C2)n1 (centres unmarked) [AIA-397] gave an EC50 of 500 to 10000 nM. In the case of Cn1cc(C(=O)Nc2ccc(F)c(Cl)c2)c(C2CC3CC(=O)CC3C2)n1 (centres unmarked) [AIA-394], the EC50 is reported as 500 to 10000 nM. In the case of Cn1nc([C@H]2CC3C/C(=N/O)C[C@@H]3C2)c(C(=O)Nc2ccc(F)c(Cl)c2)c1N (some centres unmarked) [AIA-032-B], the EC50 is reported as < 100 nM. With Cn1nc(C2CC3CCCC3C2)c(C(=O)Nc2ccc(F)c(Cl)c2)c1N (centres unmarked) [AIA-232] the EC50 was < 100 nM. With Cn1nc(C2CC3CC(C#N)CC3C2)c(C(=O)Nc2ccc(F)c(Cl)c2)c1N (centres unmarked) [AIA-027] the EC50 was < 100 nM. With Cn1nc(C2CC3COC(=O)CC3C2)c(C(=O)Nc2ccc(F)c(Cl)c2)c1N (centres unmarked) [AIA-275] the EC50 was < 100 nM. With Cn1nc(C2CC3CC4(CC3C2)OCCO4)c(C(=O)Nc2ccc(F)c(Cl)c2)c1N (centres unmarked) [AIA-290] the EC50 was < 100 nM. With Cn1nc(C2CC3CC(N)CC3C2)c(C(=O)Nc2ccc(F)c(Cl)c2)c1N (centres unmarked) [AIA-073] the EC50 was 100 to 500 nM. With Cn1nc(C2CC3CC([S+](C)[O-])CC3C2)c(C(=O)Nc2ccc(F)c(Cl)c2)c1N (centres unmarked) [AIA-074] the EC50 was < 100 nM.

Same assay, conditions: Hepatitis B virus, HePAD38, 120 h, 5 days, supernatant HBV DNA by qPCR, read-out: Viral Load EC50 Activity range
In the case of Cn1nc([C@@H]2CC[C@@H](c3cnc(C(F)(F)F)s3)C2)c(C(=O)Nc2ccc(F)c(Cl)c2)c1N [AIA-354, 5-Amino-N-(3-chloro-4-fluorophenyl)-1-methyl-3-((1R,3R)-3-(2-(trifluoromethyl)thiazol-5-yl)cyclopentyl)-1H-pyrazole-4-carboxamide], the EC50 is reported as 500 to 10000 nM. In the case of Cn1nc(C2CC3CC(O)(CS(=O)(=O)C4CC4)CC3C2)c(C(=O)Nc2ccc(F)c(Cl)c2)c1N (centres unmarked) [AIA-252-1, 5-Amino-N-(3-chloro-4-fluorophenyl)-3-(5-((cyclopropylsulfonyl)methyl)-5-hydroxyortahydropentalen-2-yl)-1-methyl-1H-pyrazole-4-carboxamide], the EC50 is reported as < 100 nM. For Cn1nc(C2CC3CC(OC(C)(C)C)CC3C2)c(C(=O)Nc2ccc(F)c(Cl)c2)c1N (centres unmarked) [AIA-058, 5-Amino-3-(5-(tert-butoxy)octahydropentalen-2-yl)-N-(3-chloro-4-fluorophenyl)-1-methyl-1H-pyrazole-4-carboxamide], the EC50 was < 100 nM. Cn1nc(C2CCC(c3ccc(OC(F)(F)F)cc3)C2)c(C(=O)Nc2ccc(F)c(Cl)c2)c1N (centres unmarked) [AIA-292, 5-Amino-N-(3-chloro-4-fluorophenyl)-1-methyl-3-(3-(4-(trifluoromethoxy)phenyl)cyclopentyl)-1H-pyrazole-4-carboxamide] gave an EC50 of 500 to 10000 nM. With CC(C)N1CC2CC(c3nn(C)c(N)c3C(=O)Nc3ccc(F)c(Cl)c3)CC2C1 (centres unmarked) [AIA-053, 5-Amino-N-(3-chloro-4-fluorophenyl)-3-(2-isopropyloctahydrocyclopenta[c]pyrrol-5-yl)-1-methyl-1H-pyrazole-4-carboxamide] the EC50 was 500 to 10000 nM. In the case of Cn1nc(C2CC(c3ccccc3)C2)c(C(=O)Nc2ccc(F)c(Cl)c2)c1N (single isomer, unassigned) [AIA-224B, 5-Amino-N-(3-chloro-4-fluorophenyl)-1-methyl-3-(3-phenylcyclobutyl)-1H-pyrazole-4-carboxamide], the EC50 is reported as 100 to 500 nM. In the case of Cn1nc(C2CC3CC(C)(O)CC3C2)c(C(=O)Nc2ccc(F)c(Cl)c2)c1N (centres unmarked) [AIA-011, 5-Amino-N-(3-chloro-4-fluorophenyl)-3-(5-hydroxy-5-methyloctahydropentalen-2-yl)-1-methyl-1H-pyrazole-4-carboxamide], the EC50 is reported as < 100 nM. Cn1nc(C2CC3CC(NCCO)CC3C2)c(C(=O)Nc2ccc(F)c(Cl)c2)c1N (centres unmarked) [AIA-103, 5-Amino-N-(3-chloro-4-fluorophenyl)-3-(5-((2-hydroxyethyl)amino)octahydropentalen-2-yl)-1-methyl-1H-pyrazole-4-carboxamide] gave an EC50 of 100 to 500 nM. For COc1cc(-c2cscn2)ccc1C1CCC(c2nn(C)c(N)c2C(=O)Nc2ccc(F)c(Cl)c2)C1 (centres unmarked) [AIA-372, 5-Amino-N-(3-chloro-4-fluorophenyl)-3-(3-(2-methoxy-4-(thiazol-4-yl)phenyl)cyclopentyl)-1-methyl-1H-pyrazole-4-carboxamide], the EC50 was < 100 nM. For Cn1nc(C2CC3CC(O)(C(=O)NC4CC4)CC3C2)c(C(=O)Nc2ccc(F)c(Cl)c2)c1N (centres unmarked) [AIA-274-1, 5-Amino-N-(3-chloro-4-fluorophenyl)-3-(5-(cyclopropylcarbamoyl)-5-hydroxyoctahydropentalen-2-yl)-1-methyl-1H-pyrazole-4-carboxamide], the EC50 was < 100 nM. In the case of Cn1nc(C2CC3CN(C(=O)N4CCCC4)CC3C2)c(C(=O)Nc2ccc(F)c(Cl)c2)c1N (centres unmarked) [AIA-025, 5-Amino-N-(3-chloro-4-fluorophenyl)-1-methyl-3-(2-(pyrrolidine-1-carbonyl)octahydrocyclopenta[c]pyrrol-5-yl)-1H-pyrazole-4-carboxamide], the EC50 is reported as < 100 nM. For CN(C)c1ccc(C2CCC(c3nn(C)c(N)c3C(=O)Nc3ccc(F)c(Cl)c3)C2)cc1 (centres unmarked) [AIA-293, 5-Amino-N-(3-chloro-4-fluorophenyl)-3-(3-(4-(dimethylamino)phenyl)cyclopentyl)-1-methyl-1H-pyrazole-4-carboxamide], the EC50 was < 100 nM. For Cn1nc(C2CC3C[S+]([O-])CC3C2)c(C(=O)Nc2ccc(F)c(Cl)c2)c1N (single isomer, unassigned) [AIA-056-A, 5-Amino-N-(3-chloro-4-fluorophenyl)-1-methyl-3-(2-oxidohexahydro-1H-cyclopenta[c]thiophen-5-yl)-1H-pyrazole-4-carboxamide], the EC50 was 500 to 10000 nM. With CC(C)Oc1ccc(C2CCC(c3nn(C)c(N)c3C(=O)Nc3ccc(F)c(Cl)c3)C2)cc1 (centres unmarked) [AIA-296, 5-Amino-N-(3-chloro-4-fluorophenyl)-3-(3-(4-isopropoxyphenyl)cyclopentyl)-1-methyl-1H-pyrazole-4-carboxamide] the EC50 was < 100 nM. For COc1ccc([C@H]2CC[C@H](c3nn(C)c(N)c3C(=O)Nc3ccc(F)c(Cl)c3)C2)cc1 [AIA-003-B, 5-amino-N-(3-chloro-4-fluorophenyl)-3-((1S,3S)-3-(4-methoxyphenyl)cyclopentyl)-1-methyl-1H-pyrazole-4-carboxamide], the EC50 was < 100 nM. In the case of COc1cc(-c2cn(C)cn2)ccc1C1CCC(c2nn(C)c(N)c2C(=O)Nc2ccc(F)c(Cl)c2)C1 (centres unmarked) [AIA-365-1, 5-Amino-N-(3-chloro-4-fluorophenyl)-3-(3-(2-methoxy-4-(1-methyl-1H-imidazol-4-yl)phenyl)cyclopentyl)-1-methyl-1H-pyrazole-4-carboxamide], the EC50 is reported as 100 to 500 nM. CN(C)C(=O)CC1CC2CC(c3nn(C)c(N)c3C(=O)Nc3ccc(F)c(Cl)c3)CC2C1 (centres unmarked) [AIA-020, 5-Amino-N-(3-chloro-4-fluorophenyl)-3-(5-(2-(dimethylamino)-2-oxoethyl)octahydropentalen-2-yl)-1-methyl-1H-pyrazole-4-carboxamide] was tested, and the EC50 was < 100 nM. In the case of Cn1nc(C2CC3CC(n4cccn4)CC3C2)c(C(=O)Nc2ccc(F)c(Cl)c2)c1N (centres unmarked) [AIA-048, 3-(5-(1H-Pyrazol-1-yl)octahydropentalen-2-yl)-5-amino-N-(3-chloro-4-fluorophenyl)-1-methyl-1H-pyrazole-4-carboxamide], the EC50 is reported as < 100 nM. For Cn1cc(-c2ccc([C@H]3CC[C@H](c4nn(C)c(N)c4C(=O)Nc4ccc(F)c(Cl)c4)C3)cc2)cn1 [AIA-050-B, 5-amino-N-(3-chloro-4-fluorophenyl)-1-methyl-3-((1S,3S)-3-(4-(1-methyl-1H-pyrazol-4-yl)phenyl)cyclopentyl)-1H-pyrazole-4-carboxamide], the EC50 was < 100 nM. With Cn1nc([C@H]2CC3C[C@](O)(CS(C)(=O)=O)CC3C2)c(C(=O)Nc2ccc(F)c(Cl)c2)c1N (some centres unmarked) [AIA-227-2, 5-Amino-N-(3-chloro-4-fluorophenyl)-3-((2s,5s)-5-hydroxy-5-(methylsulfonylmethyl)octahydropentalen-2-yl)-1-methyl-1H-pyrazole-4-carboxamide] the EC50 was < 100 nM.
